How the values were obtained:
[1] = target: T1, CETP (Homo sapiens, UniProt P11597); assay: Assay of CETP Inhibition using Purified Components (Reconstituted Buffer Assay); format: biochemical; parameters: made in house; host or cells: CHO cells (serum-free conditioned medium)
T1 sequence (P11597 18-493): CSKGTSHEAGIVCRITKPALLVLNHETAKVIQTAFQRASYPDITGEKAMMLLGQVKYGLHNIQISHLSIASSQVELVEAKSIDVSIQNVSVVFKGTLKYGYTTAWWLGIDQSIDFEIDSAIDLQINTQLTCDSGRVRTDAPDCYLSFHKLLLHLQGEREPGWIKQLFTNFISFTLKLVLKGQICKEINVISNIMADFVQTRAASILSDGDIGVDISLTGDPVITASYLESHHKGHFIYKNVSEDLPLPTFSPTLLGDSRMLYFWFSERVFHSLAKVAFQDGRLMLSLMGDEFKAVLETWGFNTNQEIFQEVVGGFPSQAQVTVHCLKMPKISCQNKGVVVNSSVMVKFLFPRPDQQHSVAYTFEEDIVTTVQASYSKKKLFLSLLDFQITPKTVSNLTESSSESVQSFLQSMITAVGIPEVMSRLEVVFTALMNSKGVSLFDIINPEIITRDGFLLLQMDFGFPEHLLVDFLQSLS
Summary of the method: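 Transfer of radiolabeled cholesteryl ester from HDL to LDL was run for 2 h at 37 °C in pH 7.4 Tris buffer with 1% BSA, using purified CHO-expressed human CETP. Precipitated LDL radioactivity, measured by scintillation after dextran sulfate/MgCl2 precipitation and filtration, yielded the IC50.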

[2] = target: T1, CETP; assay: Assay of CETP Inhibition in Human Plasma; format: biochemical; parameters: Blood was obtained from healthy volunteers, recruited from the personnel of Monsanto Company; from tissue; host or cells: human EDTA plasma pool from healthy volunteers; details: Inhibition of CETP activity in human plasma assay; transfer of [3H]CE from HDL to VLDL and LDL; read-out: IC50
Summary of the method: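 In human EDTA plasma with [3H]CE-HDL, compounds in 1% DMSO (4 μL in 396 μL) were incubated 4 h at 37° C. IC50 was taken from % control versus concentration.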

[3] = Inhibition of CETP activity in reconstituted buffer assay, transfer of [3H]CE from HDL to LDL, read-out: IC50

| SMILES | IC50 [1, 3] | IC50 [2] | IC50 [1] | IC50 ([1]; IC50, Inhibition of CETP activity in reconstituted buffer assay, transfer of [3H]CE from HDL to LDL) |
| --- | --- | --- | --- | --- |
| OC(CN(Cc1cccc(Br)c1)c1cccc(Oc2ccccc2)c1)C(F)(F)F (stereo not shown) [Example 595B, 3-[(3-phenoxyphenyl)[[3-bromophenyl]methyl]amino]-1,1,1-trifluoro-2-propanol] | 4.5 µM | > 100 µM |  |  |
| OC(CN(Cc1cccc(OC(F)(F)C(F)F)c1)c1cccc(Oc2cc(F)ccc2Br)c1)C(F)(F)F (stereo not shown) [Example 629, 3-[[3-(2-bromo-5-fluorophenoxy)phenyl][[3-(1,1,2,2-tetrafluoro-ethoxy)phenyl]methyl]amino]-1,1,1-trifluoro-2-propanol] | 0.054 µM | 3.4 µM |  |  |
| OC(CN(Cc1cccc(OC(F)(F)C(F)F)c1)c1cccc(Oc2cc(Br)ccc2F)c1)C(F)(F)F (stereo not shown) [Example 630, 3-[[3-(-5-bromo-2-fluorophenoxy)phenyl][[3-(1,1,2,2-tetrafluoro-ethoxy)phenyl]methyl]amino]-1,1,1-trifluoro-2-propanol] | 0.05 µM | 1.8 µM |  |  |
| CC(C)(C)Oc1cccc(CN(CC(O)C(F)(F)F)c2cccc(Oc3ccccc3)c2)c1 (stereo not shown) [Example 654, 3-[(3-phenoxyphenyl)[[3-(1,1-dimethylethoxy)phenyl]methyl]amino]-1,1,1-trifluoro-2-propanol] | 0.67 µM | 12 µM |  |  |
| OC(COc1cccc(CN(CC(O)C(F)(F)F)c2cccc(Oc3ccccc3)c2)c1)C(F)(F)F (stereo not shown) [Example 655, 3-[(3-phenoxyphenyl)[[3-(2-hydroxy-3,3,3-trifluoro-n-propoxy)phenyl]methyl]amino]-1,1,1-trifluoro-2-propanol] | 3.6 µM | 48 µM |  |  |
| OC(COc1cccc(CN(CC(O)C(F)(F)F)c2cccc(Oc3ccc(F)cc3)c2)c1)C(F)(F)F (stereo not shown) [Example 655B, 3-[3-(4-fluorophenoxy)phenyl[[3-(2-hydroxy-3,3,3-trifluoro-n-propoxy)phenyl]methyl]amino]-1,1,1-trifluoro-2-propanol] | 1.3 µM | 63 µM |  |  |
| CC(=O)OC(CN(Cc1cccc(C(F)(F)F)c1)c1cccc(F)c1)C(F)(F)F (stereo not shown) [Example 664, 2,2,2-trifluoro-1-[[(3-fluorophenyl)[3-(trifluoromethyl)phenyl]-methyl]amino]methyl]ethyl Acetate] |  | > 200 µM | 70 µM |  |
| OC(CN(Cc1cccc(SC(F)(F)F)c1)c1cccc(Oc2ccccc2)c1)C(F)(F)F (stereo not shown) [compound 216] |  | 24 µM |  | 0.39 µM |
| OC(CN(Cc1ccc(F)c(-c2ccco2)c1)c1cccc(Oc2ccccc2)c1)C(F)(F)F (stereo not shown) [compound 593] | 0.78 µM | 49 µM |  |  |

More lines, main results first:

| IC50 [1, 3] | IC50 [2] | SMILES | IC50 [1] | IC50 ([1]; IC50, Inhibition of CETP activity in reconstituted buffer assay, transfer of [3H]CE from HDL to LDL) |
| --- | --- | --- | --- | --- |
| 0.04 µM | 1.1 µM | CCc1cc(Oc2cccc(N(Cc3cccc(C(F)(F)C(F)(F)F)c3)CC(O)C(F)(F)F)c2)ccc1Cl (stereo not shown) [Example 660, 3-[(4-chloro-3-ethylphenoxy)phenyl[[3-(pentafluoroethyl)phenyl]methyl]-amino]-1,1,1-trifluoro-2-propanol.] |  |  |
| 15 µM | > 100 µM | COc1ccc(CN(CC(O)C(F)(F)F)c2cccc(Oc3ccccc3)c2)cc1 (stereo not shown) [Example 686] |  |  |
| 2.5 µM | > 100 µM | OC(CN(Cc1cccc(C(F)(F)F)c1)c1cccc(OC(F)(F)F)c1)C(F)(F)F (stereo not shown) [Example 688] |  |  |
| 2.5 µM | 75 µM | OC(CN(Cc1cccc(Oc2ccccc2)c1)c1cc(C(F)(F)F)cc(C(F)(F)F)c1)C(F)(F)F (stereo not shown) [Example 690] |  |  |
| 3 µM | > 100 µM | OC(CN(Cc1cccc(C(F)(F)F)c1)c1cc(C(F)(F)F)ccc1C(F)(F)F)C(F)(F)F (stereo not shown) [Example 691] |  |  |
| 0.91 µM | 31 µM | O=S(=O)(c1ccccc1)c1cccc(N(Cc2cccc(OC(F)(F)C(F)F)c2)CC(O)C(F)(F)F)c1 (stereo not shown) [compound 218] |  |  |
| 2.1 µM | > 100 µM | OC(CN(Cc1cccc(OC(F)(F)C(F)F)c1)c1cccc(N2CCCCC2)c1)C(F)(F)F (stereo not shown) [compound 315] |  |  |
| 1.5 µM | 55 µM | OC(CN(Cc1cccc(OC(F)(F)F)c1)c1ccc2c(c1)Cc1ccccc1-2)C(F)(F)F (stereo not shown) [compound 699] |  |  |

Source: patent US6723753B2, “Substituted n-benzyl-n-phenyl aminoalcohol compounds useful for inhibiting cholesteryl ester transfer protein activity” (Pharmacia Corporation, priority 2002, dated 2004)
